We go through 3 molecules from ChEMBL document CHEMBL1201862, “PubChem BioAssay data set” (2004).

Targets include Aurora kinase A (Homo sapiens, UniProt O14965); Focal adhesion kinase 1 (Homo sapiens, UniProt Q05397); Aurora kinase B (Homo sapiens, UniProt Q96GD4).
Assay type in all cases: functional
For assay [1], the target named is T1, Neuropeptides B/W receptor type 1 (Homo sapiens, UniProt P48145).
T1 sequence (P48145 whole entry): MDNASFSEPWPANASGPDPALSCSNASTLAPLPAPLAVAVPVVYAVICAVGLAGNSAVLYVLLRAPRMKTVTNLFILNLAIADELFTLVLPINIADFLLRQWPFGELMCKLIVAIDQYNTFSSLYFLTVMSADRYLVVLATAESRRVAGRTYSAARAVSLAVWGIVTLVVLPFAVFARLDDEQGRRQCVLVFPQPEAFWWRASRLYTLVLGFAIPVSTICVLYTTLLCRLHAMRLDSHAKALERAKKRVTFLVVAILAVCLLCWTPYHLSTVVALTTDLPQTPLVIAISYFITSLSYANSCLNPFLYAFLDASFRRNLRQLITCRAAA
The experiment in a line: GPR7 antagonist potency, late-stage follow-up, cell-based, fluorescence, dose response, set 5 (AID 588566).

For assay [2], the target named is Melanin-concentrating hormone receptor 1 (Homo sapiens, UniProt Q99705). The assay can be described thus: Late-stage fluorescence-based counterscreen for antagonists of the G-protein coupled receptor 7 (GPR7): cell-based dose response assay to identify antagonists of the melanin-concentrating hormone receptor 1 (MCHR1) Set 5.
Assay [3] deals with Cyclin-dependent kinase 8 (Homo sapiens, UniProt P49336). The experiment in a line: Navigating the Kinome. Panel member name: CDK8.
Assay [4] deals with Tyrosine-protein kinase JAK3 (Homo sapiens, UniProt P52333).
Assay [5] has as its target Serine/threonine-protein kinase pim-1 (Homo sapiens, UniProt P11309).
Assay [6] deals with Leukocyte tyrosine kinase receptor (Homo sapiens, UniProt P29376). The experiment in a line: Navigating the Kinome. Panel member name: LTK.
Assay [7] addresses Mitogen-activated protein kinase 14 (Homo sapiens, UniProt Q16539).
The target in assay [8] is Dual specificity tyrosine-phosphorylation-regulated kinase 1A (Homo sapiens, UniProt Q13627).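 Note: measured against DYRK1A as one member of a broad kinome profiling panel.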
Assay [9] concerns the target Leucine-rich repeat serine/threonine-protein kinase 2 (Homo sapiens, UniProt Q5S007).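 Note: value from a broad kinome-wide panel profiling study in which LRRK2 was one of the kinases tested.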
For assay [10], the target named is High affinity nerve growth factor receptor (Homo sapiens, UniProt P04629).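 Note: NTRK1 tested as one member of a kinome-wide profiling panel.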
A further assay concerns the target LIM domain kinase 1 (Homo sapiens, UniProt P53667). The assay can be described thus: Navigating the Kinome. Panel member name: LIMK1.
Assay [11] addresses Glycogen synthase kinase-3 alpha (Homo sapiens, UniProt P49840).
Assay [12] addresses 5'-AMP-activated protein kinase catalytic subunit alpha-1 (Homo sapiens, UniProt Q13131).
The target of assay [13] is Platelet-derived growth factor receptor alpha (Homo sapiens, UniProt P16234). The experiment in a line: Navigating the Kinome. Panel member name: PDGFRA.
In assay [14] the target is Receptor-type tyrosine-protein kinase FLT3 (Homo sapiens, UniProt P36888).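 Note: FLT3 was tested as one member of a kinome-wide kinase panel.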
Assay [15] has as its target Serine/threonine-protein kinase D3 (Homo sapiens, UniProt O94806).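 Note: determined within a kinase panel screen, with PRKCN as the panel member.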
Assay [16] addresses Tyrosine-protein kinase receptor TYRO3 (Homo sapiens, UniProt Q06418).
Assay [17] deals with Ribosomal protein S6 kinase alpha-3 (Homo sapiens, UniProt P51812).
For the next assay, the target named is Activated CDC42 kinase 1 (Homo sapiens, UniProt Q07912). The assay can be described thus: Navigating the Kinome. Panel member name: ACK1.
For assay [18], the target named is Cyclin-dependent kinase 5 (Homo sapiens, UniProt Q00535).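 Note: CDK5 measured as one member of a kinase profiling panel.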
The target in assay [19] is Death-associated protein kinase 3 (Homo sapiens, UniProt O43293).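 Note: measured as one member of a kinome-wide profiling panel.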
For assay [20], the target named is Dual specificity mitogen-activated protein kinase kinase 2 (Homo sapiens, UniProt P36507). The experiment in a line: Navigating the Kinome. Panel member name: MAP2K2.
Chain of Dual specificity mitogen-activated protein kinase kinase 2 (P36507 whole entry): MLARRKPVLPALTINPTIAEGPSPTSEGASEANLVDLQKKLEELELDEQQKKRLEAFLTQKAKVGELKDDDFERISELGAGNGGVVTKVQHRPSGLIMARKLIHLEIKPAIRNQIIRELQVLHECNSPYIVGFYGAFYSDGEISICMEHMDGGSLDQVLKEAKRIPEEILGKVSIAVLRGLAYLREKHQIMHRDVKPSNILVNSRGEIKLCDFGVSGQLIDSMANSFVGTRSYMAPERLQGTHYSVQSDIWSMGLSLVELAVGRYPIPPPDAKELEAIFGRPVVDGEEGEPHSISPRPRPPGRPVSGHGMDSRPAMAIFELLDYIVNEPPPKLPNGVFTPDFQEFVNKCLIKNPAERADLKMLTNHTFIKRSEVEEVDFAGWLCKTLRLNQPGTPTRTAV
In assay [21] the target is Serine/threonine-protein kinase Nek2 (Homo sapiens, UniProt P51955).
The target of assay [22] is Dual specificity mitogen-activated protein kinase kinase 1 (Homo sapiens, UniProt Q02750). The assay can be described thus: Navigating the Kinome. Panel member name: MAP2K1.
Assay [23] deals with Hepatocyte growth factor receptor (Homo sapiens, UniProt P08581).
For assay [24], the target named is Inhibitor of nuclear factor kappa-B kinase subunit epsilon (Homo sapiens, UniProt Q14164). The experiment in a line: Navigating the Kinome. Panel member name: IKBKE.
Chain of Inhibitor of nuclear factor kappa-B kinase subunit epsilon (Q14164 whole entry): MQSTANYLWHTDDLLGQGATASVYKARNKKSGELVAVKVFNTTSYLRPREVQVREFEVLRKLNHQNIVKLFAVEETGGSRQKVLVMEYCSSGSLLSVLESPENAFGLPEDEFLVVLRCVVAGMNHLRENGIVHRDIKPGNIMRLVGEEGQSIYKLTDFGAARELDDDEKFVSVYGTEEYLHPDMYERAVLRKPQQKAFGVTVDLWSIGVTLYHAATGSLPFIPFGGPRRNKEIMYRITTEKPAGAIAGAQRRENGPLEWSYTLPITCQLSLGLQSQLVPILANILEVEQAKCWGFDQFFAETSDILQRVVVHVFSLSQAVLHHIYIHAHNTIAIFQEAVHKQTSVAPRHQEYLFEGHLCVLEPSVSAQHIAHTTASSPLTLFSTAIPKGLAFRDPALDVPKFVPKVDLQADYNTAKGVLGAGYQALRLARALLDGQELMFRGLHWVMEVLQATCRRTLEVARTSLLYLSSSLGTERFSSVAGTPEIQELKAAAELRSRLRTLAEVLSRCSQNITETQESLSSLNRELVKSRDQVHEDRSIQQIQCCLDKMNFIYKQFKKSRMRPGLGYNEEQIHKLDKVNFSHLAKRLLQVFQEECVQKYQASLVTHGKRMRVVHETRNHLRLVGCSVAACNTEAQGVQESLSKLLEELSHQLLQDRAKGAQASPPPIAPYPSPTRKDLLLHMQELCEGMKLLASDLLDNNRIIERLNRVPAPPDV
In assay [25] the target is Calcium/calmodulin-dependent protein kinase type II subunit alpha (Homo sapiens, UniProt Q9UQM7). The assay can be described thus: Navigating the Kinome. Panel member name: CAMK2A.
In assay [26] the target is Platelet-derived growth factor receptor beta (Homo sapiens, UniProt P09619).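 Note: value comes from a kinome panel, with PDGFRB tested as one panel member.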
For assay [27], the target named is Tyrosine-protein kinase BTK (Homo sapiens, UniProt Q06187).
Assay [28] concerns the target BDNF/NT-3 growth factors receptor (Homo sapiens, UniProt Q16620).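 Note: NTRK2 measured as one member of a broad kinome-wide kinase profiling panel.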
In assay [29] the target is Mitogen-activated protein kinase kinase kinase kinase 4 (Homo sapiens, UniProt O95819).
The target of assay [30] is Vascular endothelial growth factor receptor 1 (Homo sapiens, UniProt P17948).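 Note: measured within a kinome-wide profiling panel, FLT1 as the panel member.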
Assay [31] deals with Tyrosine-protein kinase Lck (Homo sapiens, UniProt P06239).
Assay [32] concerns the target Serine/threonine-protein kinase TBK1 (Homo sapiens, UniProt Q9UHD2). The experiment in a line: Navigating the Kinome. Panel member name: TBK1.
The target in assay [33] is Cyclin-dependent kinase 7 (Homo sapiens, UniProt P50613).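 Note: value comes from a kinome-wide kinase profiling panel in which CDK7 is one member.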
The target in assay [34] is cAMP-dependent protein kinase catalytic subunit alpha (Homo sapiens, UniProt P17612).
The target of assay [35] is Dual specificity protein kinase CLK4 (Homo sapiens, UniProt Q9HAZ1).
Assay [36] has as its target Serine/threonine-protein kinase PAK 4 (Homo sapiens, UniProt O96013).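 Note: value obtained within a kinome profiling panel in which PAK4 was one of the panel members.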
The target of assay [37] is Proto-oncogene tyrosine-protein kinase receptor Ret (Homo sapiens, UniProt P07949).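 Note: measured within a kinome-wide profiling panel, RET as the panel member.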
Assay [38] addresses Serine/threonine-protein kinase TAO1 (Homo sapiens, UniProt Q7L7X3).
The target of assay [39] is Glycogen synthase kinase-3 beta (Homo sapiens, UniProt P49841).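 Note: value comes from a broad kinome profiling panel, with GSK3B as the panel member.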
Assay [40] concerns the target Mitogen-activated protein kinase 9 (Homo sapiens, UniProt P45984).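 Note: value from a kinome panel profiling assay, MAPK9 panel entry.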
Assay [41] addresses Dual specificity tyrosine-phosphorylation-regulated kinase 1B (Homo sapiens, UniProt Q9Y463). The experiment in a line: Navigating the Kinome. Panel member name: DYRK1B.
The target of assay [42] is Rho-associated protein kinase 1 (Homo sapiens, UniProt Q13464).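 Note: measured within a broad kinome-wide panel profiling many kinases.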
Chain of Rho-associated protein kinase 1 (Q13464 whole entry): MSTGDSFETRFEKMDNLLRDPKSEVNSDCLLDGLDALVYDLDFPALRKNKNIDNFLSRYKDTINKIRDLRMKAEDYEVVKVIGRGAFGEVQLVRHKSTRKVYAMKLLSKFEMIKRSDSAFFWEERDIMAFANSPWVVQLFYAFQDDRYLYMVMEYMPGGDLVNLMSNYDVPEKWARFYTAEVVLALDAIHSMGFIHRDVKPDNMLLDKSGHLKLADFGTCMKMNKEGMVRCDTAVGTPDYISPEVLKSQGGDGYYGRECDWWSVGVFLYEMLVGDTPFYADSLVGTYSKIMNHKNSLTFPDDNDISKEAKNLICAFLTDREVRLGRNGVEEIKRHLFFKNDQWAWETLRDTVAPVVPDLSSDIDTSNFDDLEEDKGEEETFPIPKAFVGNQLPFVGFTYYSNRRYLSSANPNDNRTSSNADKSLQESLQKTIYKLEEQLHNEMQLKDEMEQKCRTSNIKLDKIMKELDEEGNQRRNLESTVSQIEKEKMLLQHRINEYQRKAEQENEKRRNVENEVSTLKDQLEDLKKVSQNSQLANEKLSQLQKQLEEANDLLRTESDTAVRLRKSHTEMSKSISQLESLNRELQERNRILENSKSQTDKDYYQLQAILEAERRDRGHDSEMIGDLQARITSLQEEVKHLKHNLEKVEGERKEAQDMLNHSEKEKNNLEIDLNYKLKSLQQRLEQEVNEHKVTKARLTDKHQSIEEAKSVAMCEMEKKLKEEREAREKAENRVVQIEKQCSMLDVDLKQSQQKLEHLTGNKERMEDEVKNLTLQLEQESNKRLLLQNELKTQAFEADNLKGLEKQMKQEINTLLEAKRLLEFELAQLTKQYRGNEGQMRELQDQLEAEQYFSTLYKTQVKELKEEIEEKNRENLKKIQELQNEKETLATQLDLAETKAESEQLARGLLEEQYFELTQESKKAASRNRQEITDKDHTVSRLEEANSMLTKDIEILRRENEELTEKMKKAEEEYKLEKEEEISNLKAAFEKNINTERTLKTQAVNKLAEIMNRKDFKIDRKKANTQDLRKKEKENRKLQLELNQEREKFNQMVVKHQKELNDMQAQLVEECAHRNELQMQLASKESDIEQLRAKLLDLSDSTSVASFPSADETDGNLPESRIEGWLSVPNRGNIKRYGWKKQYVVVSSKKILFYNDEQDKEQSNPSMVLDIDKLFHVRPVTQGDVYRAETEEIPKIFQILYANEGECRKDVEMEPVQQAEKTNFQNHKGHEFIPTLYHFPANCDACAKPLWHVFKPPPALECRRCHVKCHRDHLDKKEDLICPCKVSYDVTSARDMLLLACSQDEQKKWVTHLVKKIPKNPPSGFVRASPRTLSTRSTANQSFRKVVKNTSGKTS
In assay [43] the target is Tyrosine-protein kinase Fyn (Homo sapiens, UniProt P06241).
Assay [44] deals with Mitogen-activated protein kinase 8 (Homo sapiens, UniProt P45983).
In assay [45] the target is Macrophage-stimulating protein receptor (Homo sapiens, UniProt Q04912). The assay can be described thus: Navigating the Kinome. Panel member name: MST1R.
Assay [46] concerns the target Cyclin-dependent kinase 9 (Homo sapiens, UniProt P50750).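 Note: value from the CDK9 entry of a kinome-spanning kinase panel.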
In assay [47] the target is Dual specificity protein kinase CLK2 (Homo sapiens, UniProt P49760).
Chain of Dual specificity protein kinase CLK2 (P49760 whole entry): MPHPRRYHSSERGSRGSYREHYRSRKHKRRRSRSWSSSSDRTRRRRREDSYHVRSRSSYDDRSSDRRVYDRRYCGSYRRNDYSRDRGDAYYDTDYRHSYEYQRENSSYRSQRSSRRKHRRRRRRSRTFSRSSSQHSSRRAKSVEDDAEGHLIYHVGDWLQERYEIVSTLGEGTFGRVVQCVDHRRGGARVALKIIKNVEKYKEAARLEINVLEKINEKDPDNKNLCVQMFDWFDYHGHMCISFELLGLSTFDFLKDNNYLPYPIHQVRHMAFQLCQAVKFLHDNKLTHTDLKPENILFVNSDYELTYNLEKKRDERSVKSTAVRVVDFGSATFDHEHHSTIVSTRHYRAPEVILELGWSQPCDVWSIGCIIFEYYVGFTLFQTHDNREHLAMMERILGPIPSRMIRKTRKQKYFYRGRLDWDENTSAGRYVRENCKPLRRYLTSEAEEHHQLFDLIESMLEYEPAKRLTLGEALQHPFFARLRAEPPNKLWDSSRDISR
Assay [48] addresses cAMP-dependent protein kinase catalytic subunit PRKX (Homo sapiens, UniProt P51817).
The target in assay [49] is T2, Apoptotic protease-activating factor 1 (Homo sapiens, UniProt O14727).
T2 sequence (O14727 whole entry): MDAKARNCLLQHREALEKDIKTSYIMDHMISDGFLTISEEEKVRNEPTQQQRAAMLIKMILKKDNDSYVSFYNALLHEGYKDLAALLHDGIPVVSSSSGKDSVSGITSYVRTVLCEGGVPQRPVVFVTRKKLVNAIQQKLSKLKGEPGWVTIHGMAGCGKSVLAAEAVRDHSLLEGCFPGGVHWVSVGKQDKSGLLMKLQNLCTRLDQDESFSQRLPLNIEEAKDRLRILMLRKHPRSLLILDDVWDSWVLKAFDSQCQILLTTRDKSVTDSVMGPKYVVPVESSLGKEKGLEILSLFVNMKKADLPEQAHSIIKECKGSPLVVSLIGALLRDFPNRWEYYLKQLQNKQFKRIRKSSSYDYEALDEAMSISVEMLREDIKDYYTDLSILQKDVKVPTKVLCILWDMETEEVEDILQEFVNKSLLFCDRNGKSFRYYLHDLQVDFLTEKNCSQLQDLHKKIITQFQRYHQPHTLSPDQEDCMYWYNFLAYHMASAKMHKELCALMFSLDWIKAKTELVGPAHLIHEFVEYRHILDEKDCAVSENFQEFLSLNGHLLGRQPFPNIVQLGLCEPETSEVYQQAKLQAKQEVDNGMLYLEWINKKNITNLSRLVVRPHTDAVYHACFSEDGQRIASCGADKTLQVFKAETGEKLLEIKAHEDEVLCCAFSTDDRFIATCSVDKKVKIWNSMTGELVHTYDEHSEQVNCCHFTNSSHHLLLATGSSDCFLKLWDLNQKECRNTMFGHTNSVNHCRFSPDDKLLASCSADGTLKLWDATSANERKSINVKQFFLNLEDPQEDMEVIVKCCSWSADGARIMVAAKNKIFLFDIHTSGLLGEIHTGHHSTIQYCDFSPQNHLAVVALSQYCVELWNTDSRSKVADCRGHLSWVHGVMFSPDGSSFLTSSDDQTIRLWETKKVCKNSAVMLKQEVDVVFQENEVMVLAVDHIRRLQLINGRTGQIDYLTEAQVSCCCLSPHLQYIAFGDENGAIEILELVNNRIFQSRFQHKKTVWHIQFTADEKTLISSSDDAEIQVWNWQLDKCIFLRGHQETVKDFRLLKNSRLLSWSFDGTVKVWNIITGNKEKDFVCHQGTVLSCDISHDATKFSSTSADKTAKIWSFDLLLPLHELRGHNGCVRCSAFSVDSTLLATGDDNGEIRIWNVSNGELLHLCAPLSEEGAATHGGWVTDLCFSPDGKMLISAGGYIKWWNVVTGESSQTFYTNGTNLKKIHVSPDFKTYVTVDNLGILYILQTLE
The assay can be described thus: SAR analysis of small molecule inhibitors of Apaf-1 in a Fluorescent assay. Conditions: read-out: IC50_Mean.

SMILES strings stand for the structures. The source made the active and inactive calls.

Chain of Aurora kinase B (Q96GD4 whole entry): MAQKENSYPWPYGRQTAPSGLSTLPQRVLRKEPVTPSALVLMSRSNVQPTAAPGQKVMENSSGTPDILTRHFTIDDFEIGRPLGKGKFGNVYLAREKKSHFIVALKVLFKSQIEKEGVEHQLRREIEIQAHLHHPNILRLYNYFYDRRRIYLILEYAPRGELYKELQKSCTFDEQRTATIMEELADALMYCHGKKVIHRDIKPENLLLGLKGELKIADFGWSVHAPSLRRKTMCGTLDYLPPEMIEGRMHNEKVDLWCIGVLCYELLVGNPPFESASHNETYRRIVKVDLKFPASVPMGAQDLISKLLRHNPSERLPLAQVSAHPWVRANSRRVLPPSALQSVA
Chain of Focal adhesion kinase 1 (Q05397 whole entry): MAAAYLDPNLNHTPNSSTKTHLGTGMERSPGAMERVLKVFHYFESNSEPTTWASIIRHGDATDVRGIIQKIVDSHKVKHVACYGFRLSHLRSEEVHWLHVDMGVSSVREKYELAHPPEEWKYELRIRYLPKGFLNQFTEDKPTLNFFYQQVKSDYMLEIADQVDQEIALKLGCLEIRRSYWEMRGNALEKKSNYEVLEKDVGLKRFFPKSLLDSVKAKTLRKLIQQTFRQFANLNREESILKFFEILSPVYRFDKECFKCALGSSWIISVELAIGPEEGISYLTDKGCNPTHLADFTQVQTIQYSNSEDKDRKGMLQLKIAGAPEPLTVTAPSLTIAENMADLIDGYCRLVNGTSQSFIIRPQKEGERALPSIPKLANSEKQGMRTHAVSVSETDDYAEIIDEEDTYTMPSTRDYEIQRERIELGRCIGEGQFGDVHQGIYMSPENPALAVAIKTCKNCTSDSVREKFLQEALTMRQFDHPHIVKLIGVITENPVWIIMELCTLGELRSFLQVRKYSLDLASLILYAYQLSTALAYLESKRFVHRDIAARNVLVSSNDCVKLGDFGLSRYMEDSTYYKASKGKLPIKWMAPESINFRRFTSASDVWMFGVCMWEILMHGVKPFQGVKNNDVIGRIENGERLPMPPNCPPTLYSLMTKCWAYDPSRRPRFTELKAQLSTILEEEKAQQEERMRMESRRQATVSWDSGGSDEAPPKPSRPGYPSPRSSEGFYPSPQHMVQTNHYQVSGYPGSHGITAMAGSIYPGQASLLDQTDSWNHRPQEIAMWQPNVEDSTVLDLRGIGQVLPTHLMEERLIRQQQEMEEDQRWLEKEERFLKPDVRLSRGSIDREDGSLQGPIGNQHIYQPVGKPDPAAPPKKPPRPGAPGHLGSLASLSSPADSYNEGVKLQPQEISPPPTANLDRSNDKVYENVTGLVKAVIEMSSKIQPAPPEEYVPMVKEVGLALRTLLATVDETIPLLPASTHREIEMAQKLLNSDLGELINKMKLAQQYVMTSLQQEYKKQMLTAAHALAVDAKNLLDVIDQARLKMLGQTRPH
Chain of 5'-AMP-activated protein kinase catalytic subunit alpha-1 (Q13131 whole entry): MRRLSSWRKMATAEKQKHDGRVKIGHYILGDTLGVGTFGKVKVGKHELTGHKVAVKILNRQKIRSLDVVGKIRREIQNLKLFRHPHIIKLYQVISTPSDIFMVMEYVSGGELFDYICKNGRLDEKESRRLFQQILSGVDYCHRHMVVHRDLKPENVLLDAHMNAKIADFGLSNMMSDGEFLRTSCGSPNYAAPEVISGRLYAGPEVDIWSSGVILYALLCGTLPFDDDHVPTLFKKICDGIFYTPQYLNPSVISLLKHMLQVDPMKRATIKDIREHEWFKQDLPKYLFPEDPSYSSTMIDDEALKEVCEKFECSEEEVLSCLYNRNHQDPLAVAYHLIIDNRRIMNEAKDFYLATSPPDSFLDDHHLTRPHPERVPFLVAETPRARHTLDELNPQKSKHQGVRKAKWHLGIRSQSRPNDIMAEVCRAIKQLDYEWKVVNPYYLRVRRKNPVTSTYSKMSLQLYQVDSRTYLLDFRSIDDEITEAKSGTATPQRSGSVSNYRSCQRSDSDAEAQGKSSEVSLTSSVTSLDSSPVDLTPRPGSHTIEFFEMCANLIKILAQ

`COc1ccc(C(C#N)c2c(Cl)cnn(Cc3cccc4ccccc34)c2=O)cc1` (centres undefined): the IC50 in assay [1] is 0.36 µM (active); in [2], 1.13 µM (active).
As a reminder, the Ki is a dissociation constant, usually derived from enzyme kinetics or from competition with a known ligand. Take `O=C(Nc1cnccn1)Nc1cccc2c(O)cccc12`: the Ki in assay [3] was 0.316 µM (active); in [4], > 5.01 µM (inactive); in assay [5] it was 1 µM (active); in assay [6], 2 µM (active); on Aurora kinase A, > 1.58 µM (inactive); in [7], > 3.98 µM (inactive). The Ki in assay [8] was 1.26 µM (active); in assay [9], 1.58 µM (active); in [10], 1.58 µM (active); on LIM domain kinase 1, 0.126 µM (active); in assay [11], 1.58 µM (active); in [12] it was 2 µM (active). The Ki in [13] was 2 µM (active); in assay [14], > 3.16 µM (inactive); in [15] it was 0.794 µM (active); in assay [16], 2 µM (active); in assay [17], > 3.98 µM (inactive); on Activated CDC42 kinase 1, > 3.98 µM (inactive). For the same molecule, the Ki in [18] was 0.00631 µM (active); in assay [19], 0.316 µM (active); in [20] it was > 3.98 µM (inactive); in [21] it was > 3.16 µM (inactive); in assay [22] it was > 3.16 µM (inactive); in assay [23], 1 µM (active). Besides, the Ki was > 3.16 µM (inactive) in [24]; > 3.98 µM (inactive) in assay [25]; > 2 µM (inactive) in assay [26]; > 6.31 µM (inactive) in assay [27]; > 3.98 µM (inactive) in [28]; 5.01 µM (active) in assay [29]. The Ki in assay [30] is > 3.98 µM (inactive); at Focal adhesion kinase 1, > 6.31 µM (inactive); in [31] it was > 6.31 µM (inactive); in assay [32], > 3.16 µM (inactive); in assay [33], 3.98 µM (active); on Aurora kinase B, > 3.98 µM (inactive). Further, the Ki in assay [34] is > 1.26 µM (inactive); in assay [35], 0.126 µM (active); in assay [36], > 5.01 µM (inactive); in [37] it was 1.58 µM (active); in assay [38] it was > 6.31 µM (inactive); in [39] it was 1 µM (active). Further, the Ki in assay [40] is > 3.98 µM (inactive); in assay [41], 0.631 µM (active); in [42], > 3.98 µM (inactive); in assay [43], > 6.31 µM (inactive); in assay [44], 3.98 µM (active); in assay [45], 1.58 µM (active). In addition, the inhibitory constant (Ki) in assay [46] is 0.2 µM (active); in assay [47] it was 2 µM (active); in assay [48] it was > 3.16 µM (inactive).
Take `CC(=O)c1ccc(C(=O)Nc2ccc3[nH]c(C)nc3c2)s1`: the IC50 in [49] is > 100 µM (inactive).
